Measured values taken from patent US20260015322A1, “DELIVERY OF THERAPEUTIC ALKALOID COMPOUNDS” (priority 2022, published 2026).
Like-named read-outs stand apart in the source and are kept apart here. Marks after values point to notes of the source that are not given here.

What was measured:
[1] = Hydrolysis Assay - Condition 1 (SGF); assay type: physicochemical; conditions: Condition 1: SGF with pepsin pH 1.5, 37° C., 0.5 mM
Method: 50 uL of compound (10 mM) in DMSO was diluted into 950 uL of Simulated Gastric Fluid (SGF) with pepsin (pH 1.5) to a final concentration of 0.5 mM. The hydrolysis kinetics were conducted at 37° C. and measured by LCMS at a certain time interval.
(§1) The corresponding LCMS chromatogram were recorded and the conversions were calculated by integration of each peak.
(§2) • 1) LCMS spectra were obtained using Agilent 1200G1956A or SHIMADZU LCMS-2020. • Standard LCMS conditions were as follows (running time 1.55 minutes): • Acidic condition: Mobile Phase A: 0.0375% TFA in water (v/v). Mobile Phase B: 0.01875% TFA in acetonitrile (v/v); Column: Kinetex EVO C18 30*2.1 mm, 5 μm. • Basic condition: Mobile Phase A: 0.025% NH3·H2O in water (v/v). Mobile Phase B: Acetonitrile; Column: Kinetex EVO C18 2.1×30 mm, 5 μm. • 2) Conversion (%)=peak area 1/(peak area 1+peak area 2)*100%, peak area 1 is the integration of hydrolyzed product, peak area 2 is the integration of starting material.

[2] = Plasma Stability Assay (Example A2), mouse plasma; assay type: in vitro ADME; conditions: Mouse Plasma, 37° C., prodrug remaining
Method: (§3) Each test was carried out in duplicate for each time point; 0 min, 15 min, 30 min, 60 min, 120, 240 min. […]

[3] = Plasma Stability Assay (Example A2), human plasma; assay type: in vitro ADME; conditions: 37° C., prodrug remaining
Method: as §3

[4] = Metabolic Stability in Human Hepatocytes; assay type: in vitro ADME; conditions: cryopreserved human hepatocytes, 5×10^5 viable cells/mL, 37° C.
Method: A 2.5 uL aliquot of 100 μM test compound was incubated with 247.5 uL of cryopreserved hepatocytes suspended in serum-free incubation medium at 5×10^5 viable cells/mL. The mixture was incubated at 37° C. and shaken at 500 rpm for the designated time points (0.5, 15, 30, 60, 90, or 120 min). At each time point, 25 μL aliquot of incubation mixture was transferred to 125 μL of cold acetonitrile containing internal standard, followed by centrifugation for 30 min at 3,220 g. 100 μL of supernatant was mixed with 100 μL of distilled water for analysis by LC-MS/MS. Peak areas were determined from extracted ion chromatograms and in vitro half-life (t1/2) was determined from the concentration vs time regression slope, in vitro t1/2=0.693/k. Conversion of the in vitro t1/2 (in min) into the in vitro intrinsic clearance (in vitro CLint, in μL/min/10^6 cells) is done using: in vitro CLint=kV/N.

[5] = Hydrolysis Assay - Condition 2 (DI Water); assay type: physicochemical; conditions: 25° C., 0.5 mM
Method: 50 uL of compound (10 mM) in DMSO was diluted into 950 uL of DI water to a final concentration of 0.5 mM. The hydrolysis kinetics were conducted at 25° C. and measured by LCMS at a certain time interval.
as §1, §2

[6] = assay type: in vivo, male C57BL/6 mice; conditions: 323 IV 2 mg/kg, mice; for CL: marked NR (not reportable)
Method: Total fifteen male mice were used in this study with n=3 mice/time point with sparse sampling study design. Animals were administered through intravenous route with solution formulation of 323 at 2 mg/kg dose.
The extraction procedure for plasma/brain samples and the spiked plasma/brain calibration standards were identical (PMSF Stabilized Plasma and Brain used for Preparation of calibration standards): A 20 μL of study sample plasma/brain or spiked plasma/brain calibration standard was added to individual pre-labeled micro-centrifuge tubes followed by 200 μL of internal standard prepared in acetonitrile (Rosuvastatin+Cetrizine, 50 ng/mL) was added except for blank, where 200 μL of acetonitrile was added. Samples were vortexed for 5 minutes. Samples were centrifuged for 10 minutes at a speed of 4000 rpm at 4° C. Following centrifugation, 200 μL of clear supernatant was transferred in 96 well plates and analyzed using LC-MS/MS.
Brain samples were diluted (1-part of tissue: 2-part of buffer) and homogenized. The homogenate was submitted for bioanalysis and the concentrations (ng/mL) received were corrected with dilution factor (3×) and the final reported concentrations were represented in ng/g.
The plasma and brain concentration-time data of 323 and 001 were used for the pharmacokinetic analysis.

[7] = Plasma Stability Assay (Example A3), human plasma; assay type: in vitro ADME; conditions: 10 μM, 37° C., prodrug remaining
Text: (§4) The data is represented in the table below.

[8] = Plasma Stability Assay (Example A3), rat plasma; assay type: in vitro ADME; conditions: 10 μM, 37° C., prodrug remaining
Text: as §4

## COc1ccc([C@@]23CCC(OP4(=O)OCC(C)(C)CO4)=C[C@@H]2N(C)CC3)cc1OC [Compound 323, 2-[[(3aS,7aS)-3a-(3,4-dimethoxyphenyl)-1-methyl-3,4,5,7a-tetrahydro-2H-indol-6-yl]oxy]-5,5-dimethyl-1,3,2λ5-dioxaphosphinane 2-oxide]
[1]; 1 min
  Conversion (%): 0%
[1]; 5 min
  Conversion (%): 0%
[1]; 30 min
  Conversion (%): 0%
[1]; 1 h
  Conversion (%): 0%
[1]; 4 h
  Conversion (%): 0%
[1]; 24 h
  Conversion (%): 0%
[2]; 0 min
  Prodrug (%): 100.0%
[2]; 15 min
  Prodrug (%): >99%
[2]; 30 min
  Prodrug (%): >99%
[2]; 60 min
  Prodrug (%): 94.1%
[2]; 120 min
  Prodrug (%): 71.9%
[2]; 240 min
  Prodrug (%): 50.3%
[3]; 0 min
  Prodrug (%): 100%
[3]; 15 min
  Prodrug (%): 76.6%
[3]; 30 min
  Prodrug (%): 64.5%
[3]; 60 min
  Prodrug (%): 38.1%
[3]; 120 min
  Prodrug (%): 12.8%
[3]; 240 min
  Prodrug (%): 1.60%
[4]
  t1/2: 327 min
[5]; 1 min
  Conversion (%): 0%
[5]; 5 min
  Conversion (%): 0%
[5]; 30 min
  Conversion (%): 0%
[5]; 1 h
  Conversion (%): 0%
[5]; 4 h
  Conversion (%): 0%
[5]; 24 h
  Conversion (%): 0%
[6]; 323
  Brain-Kp: 0.07
  brain concentrations quantifiable up to: ≤ 0.5 h
[6]; 323, 0.08 h
  Brain concentrations (mean): 22.15 ng/g
  Plasma concentrations (mean): 332.15 ng/mL
[6]; 323, 0.25 h
  Brain concentrations (mean): 8.97 ng/g
  Plasma concentrations (mean): 91.59 ng/mL
[6]; 323, 0.5 h
  Plasma concentrations (mean): 26.34 ng/mL
[6]; 323, 0.5 h, average of two values
  Brain concentrations (mean): 4.43^d ng/g
[6]; 323, 1 h
  Plasma concentrations (mean): 4.05 ng/mL
[6]; 323, 2 h, single value, excluded from data analysis
  Plasma concentrations (mean): 1.03^c ng/mL
[6]; 323 in Brain
  C0 (back extrapolated concentration): 0.03389 µg/mL
  T1/2: 10.8 min
  Vss: 61.73 L/kg
  CL: NR (4350.55) mL/min/kg
[6]; 323 in Plasma
  AUClast: 0.096 µg·h/mL
  C0 (back extrapolated concentration): 0.60901 µg/mL
  T1/2: 10.2 min
  Vss: 3.25 L/kg
  CL: NR (343.84) mL/min/kg
[7]; 0 min
  Prodrug (%): 100.00%
[7]; 10 min
  Prodrug (%): 86.9%
[7]; 30 min
  Prodrug (%): 70.8%
[7]; 60 min
  Prodrug (%): 52.7%
[7]; 120 min
  Prodrug (%): 27.0%
[7]; 240 min
  Prodrug (%): 9.3%
[8]; 0 min
  Prodrug (%): 100.00%
[8]; 10 min
  Prodrug (%): >99%
[8]; 30 min
  Prodrug (%): 95.5%
[8]; 60 min
  Prodrug (%): 82.0%
[8]; 120 min
  Prodrug (%): 58.8%
[8]; 240 min
  Prodrug (%): 34.0%

## COc1ccc([C@@]23CCC(OP(=O)(O)OCOC(=O)OC(C)C)=C[C@@H]2N(C)CC3)cc1OC [Compound 410, [[(3aS,7aS)-3a-(3,4-dimethoxyphenyl)-1-methyl-3,4,5,7a-tetrahydro-2H-indol-6-yl]oxy-hydroxy-phosphoryl]oxymethyl isopropyl carbonate]
[7]; 0 min
  Prodrug (%): 100.0%
[7]; 10 min
  Prodrug (%): 96.3%
[7]; 30 min
  Prodrug (%): 98.8%
[7]; 60 min
  Prodrug (%): 92.7%
[7]; 120 min
  Prodrug (%): 88.2%
[7]; 240 min
  Prodrug (%): 75.5%
[8]; 0 min
  Prodrug (%): 100.0%
[8]; 10 min
  Prodrug (%): 63.0%
[8]; 30 min
  Prodrug (%): 25.4%
[8]; 60 min
  Prodrug (%): 7.1%
[8]; 120 min
  Prodrug (%): 0.52%
[8]; 240 min
  Prodrug (%): 0.01%

## COc1ccc([C@@]23CCC(OP4(=O)OCCCO4)=C[C@@H]2N(C)CC3)cc1OC [Compound 422, 2-(((3aS,7aS)-3a-(3,4-dimethoxyphenyl)-1-methyl-2,3,3a,4,5,7a-hexahydro-1H-indol-6-yl)oxy)-1,3,2-dioxaphosphinane 2-oxide]
[4]
  t1/2: 366 min
[7]; 0 min
  Prodrug (%): 100.0%
[7]; 10 min
  Prodrug (%): 89.4%
[7]; 30 min
  Prodrug (%): 73.1%
[7]; 60 min
  Prodrug (%): 62.4%
[7]; 120 min
  Prodrug (%): 39.2%
[7]; 240 min
  Prodrug (%): 19.6%
[8]; 0 min
  Prodrug (%): 100.0%
[8]; 10 min
  Prodrug (%): >99%
[8]; 30 min
  Prodrug (%): >99%
[8]; 60 min
  Prodrug (%): >99%
[8]; 120 min
  Prodrug (%): 91.0%
[8]; 240 min
  Prodrug (%): 76.8%

## COc1ccc([C@@]23CCC(OP4(=O)OC(C)CC(C)O4)=C[C@@H]2N(C)CC3)cc1OC (stereo partly drawn) [Compound 423, 2-(((3aS,7aS)-3a-(3,4-dimethoxyphenyl)-1-methyl-2,3,3a,4,5,7a-hexahydro-1H-indol-6-yl)oxy)-4,6-dimethyl-1,3,2-dioxaphosphinane 2-oxide]
[4]
  t1/2: 57 min
[7]; 0 min
  Prodrug (%): 100.00%
[7]; 10 min
  Prodrug (%): >99%
[7]; 30 min
  Prodrug (%): >99%
[7]; 60 min
  Prodrug (%): 98.77%
[7]; 120 min
  Prodrug (%): 97.80%
[7]; 240 min
  Prodrug (%): 89.67%
[8]; 0 min
  Prodrug (%): 100.00%
[8]; 10 min
  Prodrug (%): >99%
[8]; 30 min
  Prodrug (%): >99%
[8]; 60 min
  Prodrug (%): 91.05%
[8]; 120 min
  Prodrug (%): 83.29%
[8]; 240 min
  Prodrug (%): 67.32%
